Reference: US20250230138A1, “COMPOUNDS HAVING A T-STRUCTURE FORMED BY AT LEAST FOUR CYCLES FOR USE IN THE TREATMENT OF CANCER AND OTHER INDICATIONS” (TheRas, Inc., priority 2022, published 2025)

What was measured:
[1] = Insulin levels in fed male mice (FIG. 3D); format: in vivo; conditions: single oral dose 50 mg/kg, 240 minutes after administration
Protocol: (§1) (One-way ANOVA with Dunnett's test vs. vehicle; *=p<0.01; **=p<0.0001). From left to right along x-axis in FIG. 3B: vehicle, 30 mg/kg BBO, 100 mg/kg BBO, 300 mg/kg BBO, 50 mg/kg alpelisib. […] (One-way ANOVA with Tukey's multiple comparisons test vs all other groups: *p<0.0001) (IV=intravenous administration; PO=per os or oral administration; ng/mL=nanograms per milliliters; mg/kg=milligrams per kilogram; mg/dL=milligrams per deciliter; min=minutes; CDX=cell line derived xenograft; QD=quaque die or once daily, PK=pharmacokinetics)

[2] = tested on: pAKT (Ser473) in BT474 CDX tumors; test: Pharmacodynamic activity (tumor pAKT) in BT474 cell line-derived xenograft model; format: in vivo, mice; conditions: NOD/SCID mice, 4 hours after one oral dose of 50 mg/kg
Protocol: An in vivo study was conducted to evaluate the pharmacodynamic activity of Compound 58 in the breast cancer estrogen receptor positive (ER+) BT474 cell line-derived xenograft (CDX) model, which harbors a HER2 amplification and PIK3CA linker domain K111N mutation (FIG. 3B). NOD/SCID mice were implanted subcutaneously with BT474 human tumor cells and were injected subcutaneously with estradiol benzoate twice a week to support tumor growth. When tumors reached a mean size of 286 mm^3, mice were randomized into treatment groups (4 mice per group) and administered one oral dose of vehicle, 30 mg/kg Compound 58, 100 mg/kg Compound 58, 300 mg/kg Compound 58, or 50 mg/kg alpelisib. Alpelisib is a PI3Kα kinase domain inhibitor and was included as a positive control. Whole blood and tumors were collected 4 hours post the dose. Blood was processed to plasma and compound concentrations were determined with LC-MS/MS. Tumors were processed into lysates and pAKT levels were measured using the Meso Scale Diagnostics (MSD) multi-spot pAKT (Ser473)/total AKT assay whole cell lysate kit.

[3] = Oral glucose tolerance test in fasted mice; format: in vivo; conditions: fasted male C57/BL6J mice, one oral dose 50 mg/kg, 2 g/kg glucose 1 h later, 15-120 minutes
Protocol: Two in vivo studies were performed to determine whether Compound 58 administration induces hyperglycemia and hyperinsulinemia in mice like the PI3Kα kinase domain inhibitor alpelisib (FIGS. 3C and 3D). In the first study, an oral glucose tolerance test was performed in fasted mice following the administration of compounds to determine if Compound 58 induces hyperglycemia (FIG. 3C). Male C57/BL6J mice were fasted overnight for 16 hours and approximately 5 μL of whole blood was collected via tail snip to measure fasted blood glucose levels using a glucometer. Mice were randomized into three groups (8 mice per group) based on blood glucose levels and then administered one oral dose of vehicle, 50 mg/kg alpelisib, or 300 mg/kg Compound 58. One hour later, blood was collected for a glucose measurement and then a single oral dose of a 2 g/kg glucose solution was administered. Blood glucose measurements were performed at 15, 30, 60, 90, and 120 minutes after the administration of the glucose solution.

[4] = Serum insulin levels in fed mice; format: in vivo; conditions: fed male C57/BL6J mice, 240 minutes after one oral dose 50 mg/kg
Protocol: In the second study, serum insulin levels were measured in fed mice following administration of compounds to determine if Compound 58 induces hyperinsulinemia like the PI3Kα kinase domain inhibitor alpelisib (FIG. 3D). Approximately 5 μL of whole blood was collected via tail snip from male C57/BL6J mice and used to measure fed blood glucose levels using a glucometer. Mice were randomized into three groups (8 mice per group) based on blood glucose levels and then administered one oral dose of vehicle, 50 mg/kg alpelisib, or 300 mg/kg Compound 58. 240 minutes later, whole blood was collected and processed to serum and insulin levels were measured using an ELISA.

[5] = tested on: pAKT in BT474 cells; test: Cell-based pAKT HTRF assay in BT474 cells; conditions: Homo sapiens, BT-474; BT474 cell line; read-out: pAKT (IC50)
Procedure, shortened: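 Cells grown in DMEM with 10% FBS were exposed to compounds for 4 hr in 0.25% DMSO, using a 9-point, 3-fold dilution series that starts at 3 μM. Lysates were incubated with d2 and Eu Cryptate antibodies for 4–24 h at room temperature, and HTRF was read at 615 nm emission.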

[6] = Phase III clinical trial; cited from earlier work
[7] = tested on: BT474 cell line; test: Cell viability in BT474 cell line; format: cell-based; conditions: Homo sapiens, BT-474
Description: Table 8 compares the pAKT IC50 and cell viability for Compound 58, a PI3Kα breaker, and the PI3Kα inhibitor alpelisib in the breast cancer estrogen receptor positive (ER+) BT474 cell line, which harbors a HER2 amplification and PIK3CA linker domain K111N mutation. […] Importantly, the potency on pAKT translates well into a loss in cellular viability.

[8] = Blood glucose after an oral glucose tolerance test in fasted male mice (FIG. 3C); format: in vivo; conditions: single dose
Protocol: as §1

With `Cc1nc(NC(=O)N2CCC[C@H]2C(N)=O)sc1-c1ccnc(C(C)(C)C(F)(F)F)c1` [alpelisib, reference compound] the “insulin levels (hyperinsulinemia)” value [1] was “Hyperinsulinemia is observed”, the pAKT inhibited [2] was 97% and the “Blood glucose levels after glucose dose (oral glucose tolerance test)” value [3] was “significantly elevated”. The Serum insulin levels [4] was “significantly elevated”, the IC50 [5] was 169 nM and the “patients in whom hyperglycemia was observed” value [6] was 65%. For the same molecule, the IC50 [7] was 744 nM and the “blood glucose levels (hyperglycemia)” value [8] was “Hyperglycemia is observed”.
